Results: patent US20070037886A1, “Bone marrow erythroid progenitor cell(s) differentiation inducer” (priority 2005, published 2007)
“Also recorded” adds a separate entry of the source. Positions of bridges follow the written chain, without caps; N, C: chain ends. No end group written: not given here.

What was measured:
[1] = test system: mouse bone marrow cells (CFU-E); assay: CFU-E colony assay with EPO mimetic peptide EMP1; type: cell-based
Procedure: After a female BDF-1 mouse at 10 weeks of age (Charles River Japan, Inc.) was killed by the cervical dislocation method, bone marrow cells were isolated from the femur and suspended in an IMDM medium (Invitrogen) containing 10% FCS (JRH Bioscience Inc). The bone marrow cells were centrifuged at 1500 rpm for 10 minutes at 4° C. and the precipitated bone marrow cells were resuspended in an amino acid-free IMDM medium and the number of cells was measured. To a dish with a diameter of 3.5 cm (Nalgen Nunc, Inc. International), 1 ml of a methyl cellulose semi-solid medium in which the bone marrow cells were suspended {30 μM EMP1, 100 μM 2-mercaptoethanol (Wako Pure Chemical Industries, Ltd.), 24% FCS (JRH Bioscience Inc.), 0.8% methyl cellulose (methyl cellulose containing IMDM solution […], Stem Cell Technologies, Inc.), 2% BSA (SIGMA-ALDRICH Japan K.K.), 1×10^5 cells/ml of bone marrow cells} containing arginine at a concentration of 170 μM was added (which is equal to an IMDM medium whose concentration of the amino acid composition is one-third and which includes FCS at 24%). […] Then, the number of CFU-E colonies was measured using an inverted microscope. […] The data is expressed as a mean value ±SEM. […]

[2] = test system: mouse bone marrow cells (CFU-E); assay: in vitro mouse CFU-E colony assay (methyl cellulose semi-solid medium, with rHuEPO); type: cell-based
Procedure: In the case of oral administration to rats, the blood arginine concentration reaches about 600 μM by a single-dose administration of arginine at 1.2 g/kg. Therefore, it is expected that the number of CFU-E increases in a dose-dependent manner by such an oral administration. Also in humans, it is expected that the number of CFU-E increases as the concentration of arginine in the blood increases by the oral administration.
An in vitro mouse CFU-E colony assay was carried out in accordance with the following method. After a female BDF-1 mouse at 10 weeks of age (Charles River Japan, Inc.) was killed by the cervical dislocation method, bone marrow cells were isolated from the femur and suspended in an IMDM medium (Invitrogen) containing 10% FCS (JRH Bioscience Inc). The bone marrow cells were centrifuged at 1500 rpm for 10 minutes at 4° C. and the precipitated bone marrow cells were resuspended in an amino acid-free IMDM medium and the number of cells was measured. […] Then, the number of CFU-E colonies was measured using an inverted microscope. […]
In the graph, * indicates P<0.05. The data is expressed as a mean value±SEM. […]

normal rats = conditions: repeated administration; cited from earlier work

Row | Compound | amount of EMP1 for the highest action (CFU-E colonies) ([1]; same condition as FIG. 2A, FIG. 2B) [µM] | number of CFU-E colonies ([1]; arginine 770 μM vs 170 μM, 30 μM EMP1, 48 hours, P<0.05) | number of CFU-E colonies ([2]; arginine 600 μM vs 170 μM, 1 IU/ml rHuEPO, 48 hours, per 2.2×10^5 bone marrow cells, P<0.05) | combined effect of arginine with EPO on CFU-E ([2]; arginine concomitantly with a sufficient amount of EPO) | amount of hemoglobin (normal rats) | amount of red blood cells (normal rats)
1 | GGTYSCHFGPLTWVCKPQGG-NH2 (disulfide 6-15; N-terminus assumed; SMILES CC(C)C[C@@H]1NC(=O)[C@@H]2CCCN2C(=O)CNC(=O)[C@H](Cc2ccccc2)NC(=O)[C@H](Cc2c[nH]cn2)NC(=O)[C@@H](NC(=O)[C@H](CO)NC(=O)[C@H](Cc2ccc(O)cc2)NC(=O)[C@@H](NC(=O)CNC(=O)CN)[C@@H](C)O)CSSC[C@@H](C(=O)N[C@@H](CCCCN)C(=O)N2CCC[C@H]2C(=O)N[C@@H](CCC(N)=O)C(=O)NCC(=O)NCC(N)=O)NC(=O)[C@H](C(C)C)NC(=O)[C@H](Cc2c[nH]c3ccccc23)NC(=O)[C@H]([C@@H](C)O)NC1=O) [EMP1, EPO mimetic peptide described in Science, vol; 273, pp. 458-463 (1996), reference compound] | ≥ 10 |  |  |  |  | 
2 | N=C(N)NCCC[C@H](N)C(=O)O [arginine] |  | increased the number of CFU-E | increased the number of CFU-E; also recorded: further increases CFU-E; also recorded: significantly increases | synergistic effect | increased | increased
